According to article PMC6211253, “Design of selective COX-2 inhibitors in the (aza)indazole series. Chemistry, in vitro studies, radiochemistry and evaluations in rats of a [^18F] PET tracer” (Journal of Enzyme Inhibition and Medicinal Chemistry, 2018):
Read-outs that look alike come from different tables or passages of the source.

Key:
COX-2 = biological target: T1, COX-2 (Rattus norvegicus, UniProt P35355); assay: Ex vivo cerebral biodistribution and blocking studies in quinolinic acid lesioned rats; design: species or system Wistar rats
T1 construct: from tissue; host or cells: brain regions of QA-lesioned Wistar rats (in vivo injection, ex vivo counting)
T1 sequence (P35355 18-604): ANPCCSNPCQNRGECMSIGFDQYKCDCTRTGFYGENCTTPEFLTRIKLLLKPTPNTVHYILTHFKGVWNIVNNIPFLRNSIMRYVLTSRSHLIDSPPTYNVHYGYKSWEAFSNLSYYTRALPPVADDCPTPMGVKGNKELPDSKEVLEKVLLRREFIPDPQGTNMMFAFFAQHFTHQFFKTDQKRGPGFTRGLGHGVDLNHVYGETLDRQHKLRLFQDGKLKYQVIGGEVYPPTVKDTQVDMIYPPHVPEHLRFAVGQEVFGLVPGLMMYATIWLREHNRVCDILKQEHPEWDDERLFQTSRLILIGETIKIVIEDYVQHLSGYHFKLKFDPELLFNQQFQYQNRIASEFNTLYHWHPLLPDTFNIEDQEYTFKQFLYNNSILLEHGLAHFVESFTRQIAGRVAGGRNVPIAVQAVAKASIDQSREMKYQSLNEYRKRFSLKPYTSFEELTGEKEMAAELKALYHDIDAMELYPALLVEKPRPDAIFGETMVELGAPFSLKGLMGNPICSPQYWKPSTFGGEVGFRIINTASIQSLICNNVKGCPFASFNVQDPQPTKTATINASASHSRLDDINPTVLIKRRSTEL
Text: This model consists of a unilateral intrastriatal injection of quinolinic acid to induce excitotoxicity mediated via NMDA receptor activation. This animal model is well known in the literature to produce an inflammatory reaction induced by COX-2 activation in lesioned cerebral parenchyma.
The cerebral biodistribution of [^18F]16 in rats lesioned with QA was expressed as percent of injected dose per gram of tissue (%ID/g) and is shown in Figure 3.
Figure 3. Cerebral biodistribution of [^18F]16, 60 min after i.v. injection in rats, 7 days after focal intrastriatal injection of 150 nmol of quinolinic acid. In the “celecoxib” and “cold 16” groups, animals received an i.v. pre-injection (15 min) of the corresponding compound (3 mg/kg). Results are expressed as % injected dose/g tissue ± SEM. Cx: cortex; Stri: striatum; Hip: hippocampus, Cb: cerebellum.
Blocking in vivo experiments, consisting of a pretreatment with either celecoxib or cold 16 (3 mg/kg) 15 min before injection of the radiotracer, are also presented in Figure 3. […] This confirmed that the low in vivo accumulation observed consisted of nonspecific binding.
Animals. All procedures were conducted in accordance with the requirements of the European Community Council for the care of laboratory animals 2010/63/EU, and approved by the regional ethical committee (Authorization N°2015022011523044). Experiments were carried out on adult Wistar rats (Centre d’Elevage René Janvier, Le Genest-St-Isle, France) weighing 276 ± 19 g at the beginning of the experiments. Animals were housed in groups of two per cage in a temperature and humidity controlled environment (temperature 21 °C ± 1 °C; hygrometry 55% ± 5%), under a 12 h light/dark cycle with food and water available ad libitum.
Surgery: Surgery was performed under isoflurane (AErrane, Baxter, France) anaesthesia (4% for anaesthesia induction and thereafter 2% for its maintenance, in N2O-O2: 70%-30%). The animal's body temperature (36.8 ± 0.5 °C) was monitored with a homoeothermic probe throughout surgery. A unilateral striatal QA lesion was induced in 18 adult male Wistar rats as previously described^14. This procedure results in a well-delineated reproducible excitotoxic lesion to the striatum and ipsilateral cortex.
Ex vivo cerebral biodistribution studies were performed with [^18F]16 in QA lesioned animals at 7 days post lesion (n=6 per group). Rats were i.v. injected (penis vein) with [^18F]16 (2.5 ± 1 MBq) in 300 μL normal saline). […] Animals were sacrificed by decapitation 60 min post [^18F]16 injection. The whole brain was quickly removed and several brain areas (cerebellum, left and right hippocampus, left and right frontal cortex, and left and right striatum), together with the femur, to detect potential in vivo defluorination of the tracer, were dissected and weighed, and their radioactivity was measured using an automated gamma counter (2480 Gamma counter Wizard, Perkin Elmer). The percentage of injected dose per gram tissue (%ID/g) was calculated by comparison with samples to standard dilutions of the initial injected solution.
Statistical analysis: Results were expressed as mean ± standard error of the mean (SEM). Groups of rats (control vs unlabeled compound 16 preinjection, or control vs celecoxib preinjection) were compared using the Mann–Whitney test. Comparisons of binding between ipsi- and contralateral brain structures were performed using the Wilcoxon one-tailed test. The level of significance was p<0.05 (XLStat software®).

human recombinant COX-2 = biological target: T2, human recombinant COX-2 (Homo sapiens, UniProt P35354); assay: COX Inhibitor Screening Kit (Cayman), fluorescence-based, COX-2 inhibition; format: biochemical; conditions: for fold decrease in COX-2 activity versus analog: 41 and 42 versus 14, 17 versus 16; for COX-2 activity in words: SAR discussion
T2 construct: purchased Cayman Chemical 700100, No. 760111
T2 sequence (P35354 18-604): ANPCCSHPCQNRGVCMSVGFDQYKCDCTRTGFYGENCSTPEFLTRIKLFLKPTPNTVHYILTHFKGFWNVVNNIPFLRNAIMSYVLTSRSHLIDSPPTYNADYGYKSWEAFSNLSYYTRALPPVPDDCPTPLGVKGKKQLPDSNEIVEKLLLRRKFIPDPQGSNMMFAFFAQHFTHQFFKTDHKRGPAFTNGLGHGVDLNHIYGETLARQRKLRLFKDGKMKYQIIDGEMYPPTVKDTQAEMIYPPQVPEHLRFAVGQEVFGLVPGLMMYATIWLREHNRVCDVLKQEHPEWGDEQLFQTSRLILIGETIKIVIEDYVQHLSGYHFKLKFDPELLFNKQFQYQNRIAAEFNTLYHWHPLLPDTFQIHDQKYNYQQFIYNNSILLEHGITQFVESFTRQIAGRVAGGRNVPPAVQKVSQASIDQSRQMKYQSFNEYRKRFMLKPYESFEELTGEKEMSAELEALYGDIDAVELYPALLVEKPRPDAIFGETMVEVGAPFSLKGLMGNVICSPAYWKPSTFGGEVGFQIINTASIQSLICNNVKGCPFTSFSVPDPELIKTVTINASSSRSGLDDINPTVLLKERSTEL

[1] = means of triplicates, except DuP-697 (n = 27) and Celecoxib (n = 5)

Row | Structure (SMILES) | melting point [°C] | IC50 (human recombinant COX-2; [1]) [µM] | also measured
1 | NS(=O)(=O)c1ccc(-n2nc3ccccc3c2-c2ccc([18F])cc2)cc1 [[^18F]16, 4-[3-(4-[^18F]Fluorophenyl)indazol-2-yl]benzenesulfonamide] |  |  | defluorination in vivo (COX-2; from femur uptake, rats): negligible defluorination; decrease in accumulation after blocking pretreatment (COX-2; pretreatment with celecoxib or cold 16 (3 mg/kg i.v.) 15 min before radiotracer): In none of these experiments was a decrease in [^18F]16 accumulation observed; bone uptake in the femur (COX-2; rats, 60 min after i.v. injection): 0.154 ± 0.032 %ID/g tissue; accumulation in activated brain areas compared to contralateral striatum and cortex (COX-2; rats, 7 days after intrastriatal QA, 60 min after i.v. injection): no statistically significant difference; passage through the blood-brain-barrier (BBB) (COX-2; rats, preliminary results): low passage
2 | CS(=O)(=O)c1ccc(-n2nc3ccccc3c2-c2ccc(F)cc2)cc1 [compound 14, 3-(4-Fluorophenyl)-2-(4-methylsulfonylphenyl)indazole] | 173 to 175 | 1.46 ± 0.5 | IC50 (human recombinant COX-2): ~1 µM
3 | CS(=O)(=O)c1ccc(-c2c3ccccc3nn2-c2ccc(F)cc2)cc1 [compound 15, 2-(4-Fluorophenyl)-3-(4-methylsulfonylphenyl)indazole] | 198 to 200 | 2.3 ± 0.5 | IC50 (human recombinant COX-2): ≤ 2 µM
4 | NS(=O)(=O)c1ccc(-n2nc3ccccc3c2-c2cccc(F)c2)cc1 [compound 17, 4-[3-(3-Fluorophenyl)indazol-2-yl]benzenesulfonamide] | > 250 | 4.2 ± 0.4 | fold decrease in COX-2 activity versus analog (human recombinant COX-2): 10 fold
5 | Cc1ccc(-c2c3ccccc3nn2-c2ccc(S(C)(=O)=O)cc2)cc1F [compound 18, 3-(3-Fluoro-4-methyl-phenyl)-2-(4-methylsulfonylphenyl)indazole] | 149 to 151 | 1.03 ± 0.2 | 
6 | CCOc1ccc(-c2c3ccccc3nn2-c2ccc(S(C)(=O)=O)cc2)cc1F [compound 19, 3-(4-Ethoxy-3-fluoro-phenyl)-2-(4-methylsulfonylphenyl)indazole] | 138 to 140 | > 25 | 
7 | CCOc1ccc(-c2c3ccccc3nn2-c2ccc(S(C)(=O)=O)cc2)cc1C(F)(F)F [compound 20, 3-[4-Ethoxy-3-(trifluoromethyl)phenyl]-2-(4-methylsulfonylphenyl)indazole] | 196 to 198 |  | 
8 | CS(=O)(=O)c1ccc(-n2nc3ccccc3c2-c2ccc(Cl)c(C(F)(F)F)c2)cc1 [compound 21, 3-[4-Chloro-3-(trifluoromethyl)phenyl]-2-(4-methylsulfonylphenyl)indazole] | 197 to 199 | 1.1 ± 0.3 | 
9 | CS(=O)(=O)c1ccc(-n2nc3ccccc3c2-c2ccc(F)nc2)cc1 [compound 22, 3-(6-Fluoro-3-pyridyl)-2-(4-methylsulfonylphenyl)indazole] | 216 to 218 | > 25 | 
10 | CS(=O)(=O)c1ccc(-n2nc3ccccc3c2-c2ccc(F)nc2F)cc1 [compound 23, 3-(2,6-Difluoro-3-pyridyl)-2-(4-methylsulfonylphenyl)indazole] | 84 to 86 | > 25 | 
11 | COc1ccc(-c2c3ccccc3nn2-c2ccc(S(C)(=O)=O)cc2)cn1 [compound 24, 3-(6-Methoxy-3-pyridyl)-2-(4-methylsulfonylphenyl)indazole] | 146 to 148 | 2.98 ± 0.4 | COX-2 activity in words (human recombinant COX-2): moderate activity
12 | COc1cncc(-c2c3ccccc3nn2-c2ccc(S(C)(=O)=O)cc2)c1 [compound 25, 3-(5-Methoxy-3-pyridyl)-2-(4-methylsulfonylphenyl)indazole] | 215 to 217 | > 25 | 
13 | CCOc1ccc(-c2c3ccccc3nn2-c2ccc(S(C)(=O)=O)cc2)cn1 [compound 26, 3-(6-Ethoxy-3-pyridyl)-2-(4-methylsulfonylphenyl)indazole] | 147 to 149 | 4.46 ± 0.4 | COX-2 activity in words (human recombinant COX-2): moderate activity
14 | CCOc1ncc(-c2c3ccccc3nn2-c2ccc(S(C)(=O)=O)cc2)cn1 [compound 27, 3-(2-Ethoxypyrimidin-5-yl)-2-(4-methylsulfonylphenyl)indazole] | 217 to 219 | > 25 | COX-2 activity in words (human recombinant COX-2): totally inactive
15 | CS(=O)(=O)c1ccc(-n2nc3cccnc3c2-c2ccc(F)cc2)cc1 [compound 39, 3-(4-Fluorophenyl)-2-(4-methylsulfonylphenyl)pyrazolo[4,3-b]pyridine] | 219 to 221 | > 25 | 
16 | CS(=O)(=O)c1ccc(-n2nc3cnccc3c2-c2ccc(F)cc2)cc1 [compound 40, 3-(4-Fluorophenyl)-2-(4-methylsulfonylphenyl)pyrazolo[3,4-c]pyridine] |  | 4.42 ± 0.6 | 
17 | CS(=O)(=O)c1ccc(-n2nc3ncccc3c2-c2ccc(F)cc2)cc1 [compound 41, 3-(4-Fluorophenyl)-2-(4-methylsulfonylphenyl)pyrazolo[3,4-b]pyridine] |  | 4.75 ± 0.6 | fold decrease in COX-2 activity versus analog (human recombinant COX-2): 4 fold
18 | NS(=O)(=O)c1ccc(-n2nc3ccccc3c2-c2ccc([N+](=O)[O-])cc2)cc1 [compound 42, 4-[3-(4-Nitrophenyl)indazol-2-yl]benzenesulfonamide] | 221 to 223 |  | fold decrease in COX-2 activity versus analog (human recombinant COX-2): 4 fold
